According to patent publication US20050085463A1 (priority 2003, published 2005):
Read-outs that look alike come from different tables or passages of the source.

What was measured:
[1] = molecular target: α2A (Alpha 2A) adrenergic receptor (Homo sapiens, UniProt P08913); test: R-SAT competitive antagonist assay; conditions: nr = no significant antagonist or inverse agonist activity up to 1 μM, nr* = nr but significant agonist activity
[2] = system: amphetamine-induced hyperactivity; test: Reversal of amphetamine-induced hyperactivity; assay type: in vivo, Non-Swiss Albino (NSA) mice; conditions: s.c. or p.o.
[3] = molecular target: T1, M5 muscarinic receptor (Homo sapiens, UniProt P08912); test: R-SAT competitive antagonist assay; conditions: nr = no significant antagonist or inverse agonist activity up to 1 μM, nr* = nr but significant agonist activity
T1 sequence (P08912 1-532): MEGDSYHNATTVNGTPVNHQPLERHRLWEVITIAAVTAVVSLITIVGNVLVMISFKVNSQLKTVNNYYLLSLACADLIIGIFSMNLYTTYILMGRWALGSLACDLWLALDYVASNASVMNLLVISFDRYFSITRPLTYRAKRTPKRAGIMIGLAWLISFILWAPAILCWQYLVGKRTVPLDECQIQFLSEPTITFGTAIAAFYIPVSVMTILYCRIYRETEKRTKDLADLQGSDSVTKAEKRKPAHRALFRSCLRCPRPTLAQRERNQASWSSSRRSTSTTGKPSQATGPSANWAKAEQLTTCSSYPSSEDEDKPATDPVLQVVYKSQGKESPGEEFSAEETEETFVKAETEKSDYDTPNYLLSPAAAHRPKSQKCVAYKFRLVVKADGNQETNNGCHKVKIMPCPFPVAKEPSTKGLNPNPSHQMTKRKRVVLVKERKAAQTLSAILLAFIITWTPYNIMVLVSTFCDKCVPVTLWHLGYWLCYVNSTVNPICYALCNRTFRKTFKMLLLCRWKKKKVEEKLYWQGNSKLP

[4] = molecular target: δ2 receptors (Homo sapiens, UniProt P41143); test: Ligand binding screen at 10 μM
Chain of δ2 receptors (P41143 whole entry): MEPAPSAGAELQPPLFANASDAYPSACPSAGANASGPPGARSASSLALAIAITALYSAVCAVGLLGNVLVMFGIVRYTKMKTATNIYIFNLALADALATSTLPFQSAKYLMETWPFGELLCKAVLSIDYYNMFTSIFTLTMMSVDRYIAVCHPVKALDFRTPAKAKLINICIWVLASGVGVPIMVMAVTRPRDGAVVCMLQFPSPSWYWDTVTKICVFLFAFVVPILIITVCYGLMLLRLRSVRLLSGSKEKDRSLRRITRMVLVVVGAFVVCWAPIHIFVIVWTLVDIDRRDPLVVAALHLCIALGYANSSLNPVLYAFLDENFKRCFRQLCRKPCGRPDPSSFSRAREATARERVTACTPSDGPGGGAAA

[5] = Pharmacokinetics after i.v. or oral dose in dogs; assay type: in vivo, beagle dogs; conditions: dog; for concentration at 2 min / concentration at 5 min / concentration at 10 min / concentration at 30 min / concentration at 60 min / concentration at 120 min / concentration at 180 min / concentration at 240 min / concentration at 360 min: plasma; for bioavailability: NDMC p.o. 10 mg/kg vs i.v. 1 mg/kg, read-out: BA (oral bioavailability)
[6] = molecular target: D2 dopamine receptor (Homo sapiens, UniProt P14416); test: R-SAT competitive antagonist assay
Chain of D2 dopamine receptor (P14416 whole entry): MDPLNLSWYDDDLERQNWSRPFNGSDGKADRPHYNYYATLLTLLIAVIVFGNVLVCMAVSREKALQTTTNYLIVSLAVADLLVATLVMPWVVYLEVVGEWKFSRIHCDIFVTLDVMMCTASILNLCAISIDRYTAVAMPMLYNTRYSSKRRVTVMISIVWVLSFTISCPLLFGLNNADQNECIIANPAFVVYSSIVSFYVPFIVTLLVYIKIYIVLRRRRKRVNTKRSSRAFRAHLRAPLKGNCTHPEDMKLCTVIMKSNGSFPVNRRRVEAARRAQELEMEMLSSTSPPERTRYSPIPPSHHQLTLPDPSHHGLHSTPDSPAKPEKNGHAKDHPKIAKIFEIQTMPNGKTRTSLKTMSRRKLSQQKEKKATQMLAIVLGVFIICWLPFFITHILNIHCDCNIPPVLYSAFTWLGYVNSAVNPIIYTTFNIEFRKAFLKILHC

[7] = system: MK-801-induced hyperactivity; test: Reversal of MK-801-induced hyperactivity; assay type: in vivo, Non-Swiss Albino (NSA) mice
From the text: Clinically effective antipsychotic drugs can block the behavioral effects of non-competitive N-methyl-D-aspartate […], such as MK-801. […]. […]

[8] = molecular target: T2, M4 muscarinic receptor (Homo sapiens, UniProt P08173); test: R-SAT agonist assay; assay type: cell-based; set-up: expressed in transfected cells; host or cells: NIH/3T3; conditions: relative to carbachol, No response/nr = no agonist activity up to 10 μM
T2 sequence (P08173 1-479): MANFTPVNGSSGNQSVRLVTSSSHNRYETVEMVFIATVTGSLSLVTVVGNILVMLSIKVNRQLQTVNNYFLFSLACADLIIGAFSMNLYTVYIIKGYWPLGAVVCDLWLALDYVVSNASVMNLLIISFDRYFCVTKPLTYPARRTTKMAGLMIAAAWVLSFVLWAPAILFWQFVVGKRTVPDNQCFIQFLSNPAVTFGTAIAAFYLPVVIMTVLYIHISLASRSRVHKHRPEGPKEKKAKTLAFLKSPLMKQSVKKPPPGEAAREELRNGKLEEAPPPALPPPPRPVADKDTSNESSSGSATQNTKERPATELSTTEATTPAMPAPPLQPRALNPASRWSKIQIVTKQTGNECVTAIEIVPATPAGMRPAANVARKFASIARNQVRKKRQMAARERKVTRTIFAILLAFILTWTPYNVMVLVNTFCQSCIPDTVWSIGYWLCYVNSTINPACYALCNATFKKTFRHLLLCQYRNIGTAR

[9] = molecular target: M3 muscarinic receptor (Homo sapiens, UniProt P20309); test: R-SAT competitive antagonist assay; assay type: cell-based; conditions: nr = no significant antagonist or inverse agonist activity up to 1 μM, nr* = nr but significant agonist activity, read-out: pKi M3, competitive antagonist (converted)
Chain of M3 muscarinic receptor (P20309 whole entry): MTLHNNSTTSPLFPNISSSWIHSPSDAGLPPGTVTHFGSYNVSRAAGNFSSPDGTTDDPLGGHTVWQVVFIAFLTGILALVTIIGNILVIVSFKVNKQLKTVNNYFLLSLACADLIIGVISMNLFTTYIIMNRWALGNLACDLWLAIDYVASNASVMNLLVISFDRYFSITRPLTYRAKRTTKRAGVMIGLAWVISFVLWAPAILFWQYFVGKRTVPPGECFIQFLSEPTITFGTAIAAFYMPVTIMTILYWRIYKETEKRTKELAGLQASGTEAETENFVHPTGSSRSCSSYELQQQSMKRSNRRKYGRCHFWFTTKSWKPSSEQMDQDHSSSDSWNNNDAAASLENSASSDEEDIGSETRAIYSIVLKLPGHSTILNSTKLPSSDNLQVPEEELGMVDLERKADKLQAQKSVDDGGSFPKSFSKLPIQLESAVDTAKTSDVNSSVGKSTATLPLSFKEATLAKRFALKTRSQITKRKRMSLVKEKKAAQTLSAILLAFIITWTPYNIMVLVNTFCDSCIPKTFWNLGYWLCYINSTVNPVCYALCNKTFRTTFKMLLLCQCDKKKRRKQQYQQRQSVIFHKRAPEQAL

[10] = molecular target: M2 receptors (Homo sapiens, UniProt P08172); test: Ligand binding screen at 10 μM
Chain of M2 receptors (P08172 whole entry): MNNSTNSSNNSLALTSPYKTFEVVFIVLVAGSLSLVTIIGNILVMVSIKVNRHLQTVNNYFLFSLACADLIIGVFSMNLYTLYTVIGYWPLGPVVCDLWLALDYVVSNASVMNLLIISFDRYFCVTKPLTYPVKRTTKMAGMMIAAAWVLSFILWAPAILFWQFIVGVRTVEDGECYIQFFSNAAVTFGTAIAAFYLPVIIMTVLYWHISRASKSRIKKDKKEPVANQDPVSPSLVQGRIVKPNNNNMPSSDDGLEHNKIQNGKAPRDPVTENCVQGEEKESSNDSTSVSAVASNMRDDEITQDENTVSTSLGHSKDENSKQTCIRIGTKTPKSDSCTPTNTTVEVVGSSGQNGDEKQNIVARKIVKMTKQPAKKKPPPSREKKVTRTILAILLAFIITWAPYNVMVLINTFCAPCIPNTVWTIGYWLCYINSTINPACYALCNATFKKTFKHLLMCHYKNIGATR

[11] = system: apomorphine-induced climbing; test: Reversal of apomorphine-induced climbing; conditions: s.c.
[12] = beagle, iv, 1 mg/kg, Plasma concentration after NDMC administration, NDMC i.v. 1 mg/kg
[13] = beagle, iv, 1 mg/kg, Plasma concentration of compound measured after clozapine administration, clozapine i.v. 1 mg/kg
[14] = beagle, po, 10 mg/kg, Plasma concentration after NDMC administration, NDMC p.o. 10 mg/kg
[15] = beagle, po, 10 mg/kg, Plasma concentration of compound measured after clozapine administration, clozapine p.o. 10 mg/kg

Chain of α2A (Alpha 2A) adrenergic receptor (P08913 whole entry): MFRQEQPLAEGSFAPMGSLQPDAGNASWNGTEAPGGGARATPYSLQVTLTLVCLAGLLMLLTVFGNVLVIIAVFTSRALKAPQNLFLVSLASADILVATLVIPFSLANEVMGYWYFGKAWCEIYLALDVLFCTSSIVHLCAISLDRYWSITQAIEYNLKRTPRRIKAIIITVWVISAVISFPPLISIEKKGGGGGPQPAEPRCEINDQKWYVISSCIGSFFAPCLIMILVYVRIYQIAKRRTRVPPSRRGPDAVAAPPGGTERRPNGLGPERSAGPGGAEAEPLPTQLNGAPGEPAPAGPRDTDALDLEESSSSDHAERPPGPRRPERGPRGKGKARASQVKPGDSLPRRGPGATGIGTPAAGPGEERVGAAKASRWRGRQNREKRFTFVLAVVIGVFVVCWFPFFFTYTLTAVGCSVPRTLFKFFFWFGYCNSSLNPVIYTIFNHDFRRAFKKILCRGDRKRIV

SMILES: Clc1ccc2c(c1)N=C(N1CCNCC1)c1ccccc1N2 [NDMC, 8-chloro-11-(1-piperazinyl)-5H-dibenzo [b,e][1,4] diazepine]
- pKi α2A, competitive antagonist [1]: nr and nr^
- dose that attenuated amphetamine-induced hyperactivity [2]: 10 mg/kg
- pKi M5, competitive antagonist [3]: nr*
- inhibition at 10 µM [4]: ≥ 90%
- concentration at 2 min [5, 12]: 182 ng/mL
- concentration at 5 min [5, 12]: 73 ± 22 ng/mL
- concentration at 10 min [5, 12]: 50 ± 10 ng/mL
- concentration at 30 min [5, 12]: 35 ± 2 ng/mL
- concentration at 60 min [5, 12]: 32 ± 6 ng/mL
- concentration at 120 min [5, 12]: 28 ± 4 ng/mL
- concentration at 180 min [5, 12]: 27 ± 7 ng/mL
- concentration at 240 min [5, 12]: 27 ± 4 ng/mL
- concentration at 2 min [5, 13]: 0.54 ± 0.12 ng/mL
- concentration at 5 min [5, 13]: 0.47 ± 0.06 ng/mL
- concentration at 10 min [5, 13]: 0.64 ± 0.26 ng/mL
- concentration at 30 min [5, 13]: 1.72 ± 0.75 ng/mL
- concentration at 60 min [5, 13]: 3.55 ± 1.03 ng/mL
- concentration at 120 min [5, 13]: 4.31 ± 1.34 ng/mL
- concentration at 180 min [5, 13]: 4.89 ± 1.41 ng/mL
- concentration at 240 min [5, 13]: 4.44 ± 1.31 ng/mL
- concentration at 10 min [5, 14]: 1 ng/mL
- concentration at 30 min [5, 14]: 14 ± 12 ng/mL
- concentration at 60 min [5, 14]: 67 ± 37 ng/mL
- concentration at 120 min [5, 14]: 155 ± 95 ng/mL
- concentration at 180 min [5, 14]: 249 ± 44 ng/mL
- concentration at 240 min [5, 14]: 274 ± 44 ng/mL
- concentration at 360 min [5, 14]: 261 ng/mL
- concentration at 10 min [5, 15]: 0 ng/mL
- concentration at 30 min [5, 15]: 2.45 ng/mL
- concentration at 60 min [5, 15]: 25.4 ng/mL
- concentration at 120 min [5, 15]: 5.8 ng/mL
- concentration at 180 min [5, 15]: 10.3 ng/mL
- concentration at 240 min [5, 15]: 19.2 ng/mL
- concentration at 360 min [5, 15]: 46.7 ng/mL
- AUC ([5]; beagle, serum, iv, 1 mg/kg): 135 ± 21.3 ng·h/mL
- Cmax ([5]; beagle, serum, iv, 1 mg/kg): 353 ng/mL
- Vd ([5]; beagle, serum, iv, 1 mg/kg): 28.2 ± 4.92 L/kg
- half-life ([5]; beagle, serum, iv, 1 mg/kg): 13.2 ± 7 h
- bioavailability ([5]; beagle, serum, oral, 10 mg/kg): ~44%
- AUC ([5]; beagle, serum, po, 10 mg/kg): 598 ± 112 ng·h/mL
- Cmax ([5]; beagle, serum, po, 10 mg/kg): 286 ng/mL
- Tmax ([5]; beagle, serum, po, 10 mg/kg): 3.3 ± 1.2 h
- bioavailability ([5]; beagle, serum, po, 10 mg/kg): 44%
- time by which Cmax was achieved ([5]; after NDMC p.o. 10 mg/kg): ≤ 3.3 h
- peak NDMC levels as share of peak clozapine levels ([5]; after clozapine): approximately 16%
- Ki [6]: 63.1 nM
- pKi D2, competitive antagonist ([6]; R-SAT, nr = no significant antagonist or inverse agonist activity up to 1 μM, nr* = nr but significant agonist activity): 7.2 ± 0.1
- minimal effective dose, attenuation of MK-801-induced hyperactivity ([7]; p.o.): 10 mg/kg
- minimal effective dose, attenuation of MK-801-induced hyperactivity ([7]; s.c.): 1 mg/kg
- M4 Efficacy [8]: 87 ± 8%
- Ki [9]: 158 nM
- inhibition at 10 µM [10]: ≥ 90%
- minimal effective dose, reduction of apomorphine-induced climbing [11]: > 100 mg/kg
